In patent publication US10844017B2, “Biaryl compound, preparation method and use thereof” (FUDAN UNIVERSITY, priority 2017, dated 2020):

What was measured:
[1] = test system: Mouse lymphoma EL4 cells transfected with RORγt plasmid; assay: Determination of the activation rate on mouse lymphoma EL4 (IL-17 generation); format: cell-based; conditions: compound at 2 μM, 24 hours, PMA/ionomycin stimulation 4 hours, flow cytometry, read-out: +act % (activation of IL-17 generated by EL4 cells)
Experimental: Determination of the Activation Rate on Mouse Lymphoma EL4
Mouse lymphoma EL4 cells transfected with RORγt plasmid were cultured at 37° C. under an atmosphere with 5% CO2, with a test compound added simultaneously. After 24 hours, the generation efficiency of IL-17A was analyzed. Before collection of cells, PMA at 50 ng/mL and ionomycin at 500 ng/mL were added for stimulation for 4 hours. The proportion of IL-17 was detected by intracellular staining and flow cytometry. […] The activation rate of IL-17 generated by EL4 cells for the compound was measured at a concentration of 2 μM.

[2] = molecular target: T1, RORγ receptor (B-RORγ LBD / Bioin-SRC1) (Homo sapiens, UniProt P51449); assay: Determination of agonistic activities on RORγ receptors in vitro (dual FRET); format: biochemical; conditions: average of at least two independent experiments
T1 construct: 40 nM B-RORγ LBD solution
T1 sequence (P51449 269-508 limits assumed): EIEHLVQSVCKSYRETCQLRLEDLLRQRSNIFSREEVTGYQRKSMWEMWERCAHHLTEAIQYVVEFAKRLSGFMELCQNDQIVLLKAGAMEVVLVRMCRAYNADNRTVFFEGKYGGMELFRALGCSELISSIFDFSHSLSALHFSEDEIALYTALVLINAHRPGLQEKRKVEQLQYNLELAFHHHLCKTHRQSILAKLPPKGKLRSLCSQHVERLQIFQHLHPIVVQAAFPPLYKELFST
T1 sequence (Q15788 676-700 partner limits assumed): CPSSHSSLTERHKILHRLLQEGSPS
Experimental: Determination of Agonistic Activities of Compounds on RORγ Receptors In Vitro The agonistic activities of compounds described herein on RORγ receptor were determined by dual fluorescence resonance energy transfer (dual FRET) experiments. The agonistic activity was expressed by half maximum effect concentration (EC50).
1) Preparation of RORγ Assay Buffer
100 mL of buffer solution was well mixed with […] DTT for use.
2) Preparation of Solutions of Compounds
3) Preparation of protein mixtures a) 40 nM B-RORγ LBD solution was mixed well with 20 nM SA-APC solution and incubated for 15 minutes at room temperature. Then the resulting mixture was further mixed well with 400 nM Biotin and incubated for another 10 minutes at room temperature. […]
b) 40 nM Bioin-SRC1 solution was mixed well with 10 nM SA-eu solution and was incubated for 15 minutes at room temperature. Then the resulting mixture was further mixed well with 200 nM Biotin and was incubated for another 10 minutes at room temperature. […]
d) A mixture (25 μL) of B-RORγ LBD/SA-APC and Bioin-SRC1/SA-eu together with a test compound was added to one of the wells of a 384-well plate, and then the plate was centrifuged for one minute at 1000 rpm, and incubated at room temperature for one hour. The data were read on an Envision microplate detector and EC50 values were calculated.

CC(C)Cc1ccc(-c2c(Cl)cc(NC(=O)C3CCCCC3)cc2Cl)cc1C#N [Example 2, N-(2,6-Dichloro-3′-cyano-4′-isobutyl-[1,1′-biphenyl]-4-yl)cyclohexanecarboxamide]
activation at 2 µM [1]: 20 to 50% | EC50 [2]: 10 to 50 nM

CC(C)Cc1ccc(-c2c(Cl)cc(NC(=O)CC3CCCCC3)cc2Cl)cc1C#N [Example 5, (2-Cyclohexyl-N-(2,6-dichloro-3′-cyano-4′-isobutyl-[1,1′-biphenyl]-4-yl)acetamide)]
activation at 2 µM [1]: < 20% | EC50 [2]: 10 to 50 nM

CC(C)Cc1ccc(-c2c(Cl)cc(NC(=O)CC3CCOCC3)cc2Cl)cc1C#N [Example 6, N-(2,6-Dichloro-3′-cyano-4′-isobutyl-[1,1′-biphenyl]-4-yl)-2-(tetrahydro-2H-pyran-4-yl) acetamide]
activation at 2 µM [1]: 20 to 50% | EC50 [2]: 10 to 50 nM

CC(C)Cc1ccc(-c2c(Cl)cc(NC(=O)Cc3ccn(C)n3)cc2Cl)cc1C#N [Example 9A, N-(2,6-Dichloro-3′-cyano-4′-isobutyl-[1,1′-biphenyl]-4-yl)-2-(1-methyl-1H-pyrazol-3-yl)acetamide]
activation at 2 µM [1]: < 20% | EC50 [2]: 10 to 50 nM

CC(C)Cc1ccc(-c2c(Cl)cc(NC(=O)Cc3ccccc3C#N)cc2Cl)cc1C#N [Example 11, 2-(2-Cyanophenyl)-N-(2,6-dichloro-3′-cyano-4′-isobutyl-[1,1′-biphenyl]-4-yl)acetamide]
activation at 2 µM [1]: < 20% | EC50 [2]: 10 to 50 nM

CC(C)Cc1ccc(-c2c(Cl)cc(NC(=O)Cc3ccccn3)cc2Cl)cc1C#N [Example 13, N-(2,6-Dichloro-3′-cyano-4′-isobutyl-[1,1′-biphenyl]-4-yl)-2-(pyridin-2-yl)acetamide]
activation at 2 µM [1]: < 20% | EC50 [2]: 10 to 50 nM

CCS(=O)(=O)c1ccc(CC(=O)Nc2cc(Cl)c(-c3ccc(CC(C)C)cc3C#N)c(Cl)c2)cc1 [Example 28, N-(2,6-dichloro-2′-cyano-4′-isobutyl-[1,1′-biphenyl]-4-yl)-2-(4-(ethylsulfonyl)phenyl)acetamide]
EC50 [2]: 10 to 50 nM

CCS(=O)(=O)c1ccc(CC(=O)Nc2ccc(-c3ccc(CC(C)C)cc3C(F)(F)F)c(Cl)c2)cc1 [Example 29, N-(2-chloro-4′-isobutyl-2′-(trifluoromethyl)-[1,1′-biphenyl]-4-yl)-2-(4-(ethylsulfonyl)phenyl)acetamide]
EC50 [2]: 10 to 50 nM

CCS(=O)(=O)c1ccc(CC(=O)Nc2ccc(-c3ccc(CC(C)C)cc3OC(F)(F)F)c(Cl)c2)cc1 [Example 30, N-(2-Chloro-4′-isobutyl-2′-(trifluoromethoxy)-[1,1′-biphenyl]-4-yl)-2-(4-(ethylsulfonyl)phenyl)acetamide]
EC50 [2]: 10 to 50 nM

CCS(=O)(=O)c1ccc(CC(=O)Nc2ccc(-c3ccc(CC(C)C)c(C#N)c3)c(Cl)c2)cc1 [Example 31, N-(2-Chloro-3′-cyano-4′-isobutyl-[1,1′-biphenyl]-4-yl)-2-(4-(ethylsulfonyl)phenyl)acetamide]
EC50 [2]: < 10 nM

CCS(=O)(=O)c1ccc(CC(=O)Nc2cc(Cl)c(-c3ccc(CN(C)C)c(C#N)c3)c(Cl)c2)cc1 [Example 35, N-(2,6-Dichloro-3′-cyano-4′-((dimethylamino)methyl)-[1,1′-biphenyl]-4-yl)-2-(4-(ethylsulfonyl)phenyl)acetamide]
activation at 2 µM [1]: > 50%

CCS(=O)(=O)c1ccc(CC(=O)Nc2cc(Cl)c(-c3ccc(CN4CCC4)c(C#N)c3)c(Cl)c2)cc1 [Example 38, N-(4′-(Azetidin-1-ylmethyl)-2,6-dichloro-3′-cyano-[1,1′-biphenyl]-4-yl)-2-(4-(ethylsulfonyl)phenyl)acetamide]
EC50 [2]: > 1000 nM

CCS(=O)(=O)c1ccc(CC(=O)Nc2cc(Cl)c(-c3ccc(CN4CCCC4)c(C#N)c3)c(Cl)c2)cc1 [Example 39, N-(2,6-Dichloro-3′-cyano-4′-(pyrrolidin-1-ylmethyl)-[1,1′-biphenyl]-4-yl)-2-(4-(ethylsulfonyl)phenyl)acetamide]
EC50 [2]: 10 to 50 nM

CCS(=O)(=O)c1ccc(CC(=O)Nc2cc(Cl)c(-c3ccc(C=C(C)C)c(C#N)c3)c(Cl)c2)cc1 [Example 40, N-(2,6-Dichloro-3′-cyano-4′-(2-methylprop-1-en-1-yl)-[1,1′-biphenyl]-4-yl)-2-(4-(ethylsulfonyl)phenyl)acetamide]
activation at 2 µM [1]: > 50%

CCS(=O)(=O)c1ccc(CC(=O)Nc2cc(Cl)c(-c3ccc(C=C4CCC4)c(C#N)c3)c(Cl)c2)cc1 [Example 44, N-(2,6-Dichloro-3′-cyano-4′-(cyclobutylidenemethyl)-[1,1′-biphenyl]-4-yl)-2-(4-(ethylsulfonyl)phenyl)acetamide]
EC50 [2]: 10 to 50 nM

CCS(=O)(=O)c1ccc(CC(=O)Nc2cc(Cl)c(-c3ccc(CC4CCCC4)c(C#N)c3)c(Cl)c2)cc1 [Example 45, N-(2,6-Dichloro-3′-cyano-4′-(cyclopentylmethyl)-[1,1′-biphenyl]-4-yl)-2-(4-(ethylsulfonyl)phenyl)acetamide]
EC50 [2]: 10 to 50 nM

CCS(=O)(=O)c1ccc(CNC(=O)c2cc(Cl)c(-c3ccc(CC(C)C)c(C#N)c3)c(Cl)c2)cc1 [Example 47]
activation at 2 µM [1]: < 20%

CC(C)Cc1ccc(-c2c(Cl)cc(C(=O)NCc3ccc(S(C)(=O)=O)cc3)cc2Cl)cc1C#N [Example 48, 2,6-Dichloro-3′-cyano-4′-isobutyl-N-(4-(methylsulfonyl)benzyl)-[1,1′-biphenyl]-4-carboxamide]
EC50 [2]: 50 to 100 nM

CC(C)Cc1ccc(-c2c(Cl)cc(C(=O)NCc3ccc(S(C)(=O)=O)cn3)cc2Cl)cc1C#N [Example 50, 2,6-Dichloro-3′-cyano-4′-isobutyl-N-((5-(methylsulfonyl)pyridin-2-yl)methyl)-[1,1′-biphenyl]-4-carboxamide]
EC50 [2]: 50 to 100 nM

CCS(=O)(=O)c1ccc(CNC(=O)c2cc(Cl)c(-c3ccc(CN(C)C)c(C#N)c3)c(Cl)c2)cc1 [Example 51, 2,6-Dichloro-3′-cyano-4′-((dimethylamino)methyl)-N-(4-(ethylsulfonyl)benzyl)-[1,1′-biphenyl]-4-carboxamide]
EC50 [2]: 100 to 500 nM

CN(C)Cc1ccc(-c2c(Cl)cc(C(=O)NCc3ccc(S(C)(=O)=O)cc3)cc2Cl)cc1C#N [Example 52, 2,6-Dichloro-3′-cyano-4′-((dimethylamino)methyl)-N-(4-(methylsulfonyl)benzyl)-[1,1′-biphenyl]-4-carboxamide]
EC50 [2]: 500 to 1000 nM

CCS(=O)(=O)c1ccc(CNC(=O)Nc2cc(Cl)c(-c3ccc(CC(C)C)c(C#N)c3)c(Cl)c2)cc1 [Example 53, 1-(2,6-Dichloro-3′-cyano-4′-isobutyl-[1,1′-biphenyl]-4-yl)-3-(4-(ethylsulfonyl)benzyl)urea]
activation at 2 µM [1]: 20 to 50%

CC(C)Cc1ccc(-c2c(Cl)cc(NC(=O)NCc3ccc(S(C)(=O)=O)cc3)cc2Cl)cc1C#N [Example 54, 1-(2,6-Dichloro-3′-cyano-4′-isobutyl-[1,1′-biphenyl]-4-yl)-3-(4-(methylsulfonyl)benzyl)urea]
EC50 [2]: 10 to 50 nM

CC(C)Cc1ccc(-c2c(Cl)cc(NC(=O)NCc3ccc(S(C)(=O)=O)cn3)cc2Cl)cc1C#N [Example 56, 1-(2,6-Dichloro-3′-cyano-4′-isobutyl-[1,1′-biphenyl]-4-yl)-3-((5-(methylsulfonyl)pyridin-2-yl)methyl)urea]
EC50 [2]: 10 to 50 nM

CC(C)Cc1ccc(-c2c(Cl)cc(NC(=O)NCc3ccc(CC(=O)O)cc3)cc2Cl)cc1C#N [Example 57, 2-(4-((3-(2,6-Dichloro-3′-cyano-4′-isobutyl-[1,1′-biphenyl]-4-yl)ureido)methyl)phenyl)acetic acid]
EC50 [2]: 10 to 50 nM

CN(C)Cc1ccc(-c2c(Cl)cc(NC(=O)NCc3ccc(S(C)(=O)=O)cc3)cc2Cl)cc1C#N [Example 59, 1-(2,6-Dichloro-3′-cyano-4′-((dimethylamino)methyl)-[1,1′-biphenyl]-4-yl)-3-(4-(methylsulfonyl)benzyl)urea]
EC50 [2]: 10 to 50 nM

CC(C)Cc1ccc(-c2c(Cl)cc(NCCc3ccc(S(C)(=O)=O)cc3)cc2Cl)cc1C#N [Example 61, 2′,6′-Dichloro-4-isobutyl-4′-((4-(methylsulfonyl)phenethyl)amino)-[1,1′-biphenyl]-3-carbonitrile]
EC50 [2]: 10 to 50 nM

CN(C)Cc1ccc(-c2c(Cl)cc(NCCc3ccc(S(C)(=O)=O)cc3)cc2Cl)cc1C#N [Example 63, 2′,6′-Dichloro-4-((dimethylamino)methyl)-4′-((4-(methylsulfonyl)phenethyl)amino)-[1,1′-biphenyl]-3-carbonitrile]
EC50 [2]: < 10 nM
